Reference: paper PMC10650850, “Discovery, Structure–Activity Relationship and In Vitro Anticancer Activity of Small-Molecule Inhibitors of the Protein–Protein Interactions between AF9/ENL and AF4 or DOT1L” (Cancers, 2023)
“Also recorded” adds a separate entry of the source. No end group written: not given here. *: point of attachment. Biotin = O=C1N[C@H]2[C@H](CS[C@H]2CCCCC(=O)*)N1; Ahx = NCCCCCC(=O)O

T1: ENL-AF4 (Homo sapiens, UniProt Q03111)
T1 construct: ENL AHD domain (489–559); made in house; host or cells: E. coli BL21(DE3)
T1 sequence (Q03111 489-559): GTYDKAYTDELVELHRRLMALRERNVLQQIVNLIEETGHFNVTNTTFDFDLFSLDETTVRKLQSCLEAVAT

T2: AF9-DOT1L interaction (Homo sapiens, UniProt P42568)
T2 construct: human AF9 AHD domain (475–568); made in house; host or cells: E. coli BL21(DE3)
T2 sequence (P42568 475-568): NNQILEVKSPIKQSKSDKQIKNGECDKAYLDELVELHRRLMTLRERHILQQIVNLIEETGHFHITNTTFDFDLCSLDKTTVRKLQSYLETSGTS

T3: AF9-AF4 (Homo sapiens, UniProt P42568)
T3 construct: human AF9 AHD domain (475–568); made in house; host or cells: E. coli BL21(DE3)
T3 sequence (P42568 475-568): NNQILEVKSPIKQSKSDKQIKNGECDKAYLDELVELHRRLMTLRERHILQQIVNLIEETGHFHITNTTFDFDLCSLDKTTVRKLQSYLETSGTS

T4: MBP-tagged AF9 AHD domain (475–568) (human, UniProt P42568 475-568)
T4 construct: AF9 (MLLT3), human, C-terminal AHD domain, residues 475-568; cDNA synthesized by Genscript and inserted into pMAL c5X; Expressed from pMAL c5X; the MBP tag is used for capture on anti-MBP acceptor beads and for detection by an MBP antibody; also called MBP-protein; source: E. coli BL21(DE3), purified (amylose resin, size exclusion Superdex 200); not shown: MBP, N-terminal, kept
T4 sequence (looked up): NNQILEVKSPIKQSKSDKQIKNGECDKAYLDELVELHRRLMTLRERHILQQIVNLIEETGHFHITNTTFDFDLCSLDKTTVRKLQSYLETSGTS

T5: MBP-tagged ENL AHD domain (489–559) (human, UniProt Q03111 489-559)
T5 construct: ENL (MLLT1), human, C-terminal AHD domain, residues 489-559; cDNA synthesized by Genscript and inserted into pMAL c5X; Expressed from pMAL c5X; the MBP tag is used for capture on anti-MBP acceptor beads; also called MBP-protein; source: E. coli BL21(DE3), purified (amylose resin, size exclusion Superdex 200); not shown: MBP, N-terminal, kept
T5 sequence (looked up): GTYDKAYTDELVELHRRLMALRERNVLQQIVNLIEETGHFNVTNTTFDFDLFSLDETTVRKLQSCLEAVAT


How the values were obtained:
ENL-AF4 = biological target: T1, ENL-AF4; test: AlphaLisa assay, ENL-AF4 interaction; assay type: binding; conditions: ENL AHD, AF4 peptide
Experimental: (§1) Transcription cofactor AF4, which is the most frequent (~35%) fusion protein in MLL1-r leukemia, is another binding partner of AF9/ENL [35, 36, 37]. The AF9/ENL-AF4 interactions are essential for the formation of SEC, which causes aberrant gene expression in MLL-r leukemia and other AMLs. Using our previously developed AlphaLisa assays, selected compounds were tested for their ability to inhibit the PPIs between AF9 or ENL and AF4.
(§2) The cDNA for the human AF9 AHD domain (475–568) and ENL AHD domain (489–559) was synthesized (by Genscript, Piscataway, NJ, USA) and inserted into the pMAL c5X expression plasmid. The DOT1L peptide (Biotin-AHX-[…]) and AF4 peptide (Biotin-AHX-[…]) for the Alpha assay were purchased from Genscript.
(§3) Alpha assays were developed in our previous publication, using a Perkin-Elmer AlphaLisa anti-MBP kit, which contains streptavidin donor beads and anti-MBP acceptor beads. Briefly, the assay was performed using a MBP-protein (5 nM), a biotinylated peptide (40 nM), and increasing concentrations of a compound in 25 µL buffer (PBS with 0.5% BSA, pH 7.5) in 384-well plates according to the manufacturer’s protocol and measured with a Tecan SPARK microplate reader. Data were imported into Prism (version 5.0), and IC50 values from 3 independent experiments with standard deviation were obtained by using a standard dose-response curve fitting.

AF9-DOT1L interaction [1] = biological target: T2, AF9-DOT1L interaction; test: AlphaLisa assay, AF9-DOT1L interaction; assay type: binding; conditions: MBP-protein 5 nM, biotinylated peptide 40 nM, 3 independent experiments with standard deviation, read-out: IC50 (μM) against the AF9-DOT1L interaction
Method in brief: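 AlphaLisa proximity assay using MBP-tagged human AF9 AHD (475–568, 5 nM) on anti-MBP acceptor beads and biotinylated DOT1L peptide (40 nM) on streptavidin donor beads, in PBS with 0.5% BSA, pH 7.5. Compound titrated; IC50 from dose-response fits of 3 independent experiments.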

HL60 = test: Antiproliferation assay (XTT), HL60; assay type: cell-based; conditions: Homo sapiens, HL-60, 168 h, 7 days incubation, read-out: Antitumor activity EC50, HL60;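 note: EC50 values in Micromolar not Nanomolar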
Experimental: (§4) The antitumor activity of selected compounds was evaluated against the proliferation of a panel of MLL-r leukemia and other cancer cells. MV4;11 and Molm-13 leukemia cells contain MLL-AF4 and MLL-AF9 fusion oncogenes, respectively. NB4 and HL60 are AML cells without MLL translocation. Hela (cervical cancer) is a solid tumor cell line. […] The anti-proliferation activity of these compounds against other AML cells (i.e., NB4 and HL60) might be due to their inhibition of SEC-mediated gene expression (e.g., Myc), as observed in our previous studies.
(§5) Proliferation inhibition assays were performed using an XTT assay kit (Biotium, Fremont, CA, USA) following our previous methods. The antiproliferation EC50 values were determined using Prism 5 and the reported results were the mean values of at least three independent experiments. The incubation time for all compounds was 7 days.

NB4 = test: Antiproliferation assay (XTT), NB4; assay type: cell-based; conditions: Homo sapiens, NB-4, 168 h, 7 days incubation, read-out: Antitumor activity EC50, NB4;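 note: EC50 values in Micromolar not Nanomolar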
Experimental: as §4, §5

MV4;11 = test: Antiproliferation assay (XTT), MV4;11; assay type: cell-based; conditions: Homo sapiens, MV4-11, 168 h, 7 days incubation, read-out: Antitumor activity EC50, MV4;11;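 note: EC50 values in Micromolar not Nanomolar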
Experimental: as §4, §5

[2] = tested on: panel of MLL-r leukemia and other cancer cells; test: Antiproliferation assay (XTT), panel of MLL-r leukemia and other cancer cells; assay type: cell-based; conditions: 168 h, MV4;11, Molm-13, NB4 and HL60 cells, 7 days, read-out: Antitumor activity EC50, span over MLL-r leukemia and AML cells
Experimental: as §4, §5

Molm13 = test: Antiproliferation assay (XTT), Molm-13; assay type: cell-based; conditions: Homo sapiens, MOLM-13, 168 h, 7 days incubation, read-out: Antitumor activity EC50, Molm13;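 note: EC50 values in Micromolar not Nanomolar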
Experimental: as §4, §5

AF9-DOT1L interaction [3] = biological target: T2, AF9-DOT1L interaction; test: Pull-down assay of AF9 AHD with DOT1L peptide-coated beads; assay type: binding
From the text: A pull-down assay was used to confirm that the strong inhibitors could disrupt the AF9-DOT1L interaction. Streptavidin agarose beads coated with biotinylated DOT1L peptide were used to pull-down the protein AF9 AHD in the solution, followed by thorough washing, SDS-PAGE (sodium dodecyl sulfate-polyacrylamide gel electrophoresis) and Western blotting to visualize and quantitate the protein. […] This alternative, non-optical method confirmed that compounds 24 and 50 can inhibit the PPI between AF9 and DOT1L.
The pull-down assays were conducted following our previous method. Briefly, the biotinylated DOT1L peptide (0.25 mg/mL) was incubated with streptavidin agarose beads (20 μL) in PBS containing 0.1% Triton X-100 (400 µL) for 3h to yield, after washing, DOT1L-coated beads. MBP-tagged AF9 AHD (0.2 µM, 400 µL) was pre-incubated with a compound for 1 h before adding to the beads. After 6 h incubation at 4 °C, the beads were collected, thoroughly washed, and subjected to SDS-PAGE and analyzed by Western blot using an MBP antibody (#2396, Cell signaling, Danvers, MA, USA).

HoxA9, Meis1 and Myc = test: RT-qPCR of MLL target genes in Molm-13 cells; assay type: cell-based; conditions: 1 and 5 µM, 4 days
From the text: The major function of the SEC is to promote transcription elongation for its bound genes. Because of the high affinity of the PPIs between AF9/ENL and AF4, onco-MLL (e.g., MLL-AF4 or MLL-AF9/-ENL) recruits SEC to MLL target genes, facilitates their expression, and eventually causes leukemia initiation. Next, we investigated whether selected inhibitors of these PPIs can inhibit the expression of HoxA9, Meis1 and Myc, which are MLL target genes and their high expression is characteristic of MLL-r leukemia. In addition, high expression of Myc is also observed in a broad range of AMLs and other cancers and is considered a driving factor for oncogenesis. To this end, RNAs from the control and compound-treated Molm-13 cells (harboring MLL-AF9) were extracted and subjected to quantitative PCR. […] RNA extraction and RT-qPCR were performed following our previous method. 10^5 cells/mL were incubated with a compound for 4 days and the RNA was extracted using an RNeasy mini kit (#74104, Qiagen, Germantown, MD, USA). 100–1000 ng of total RNA was reverse transcribed using iScript™ Reverse Transcription Supermix (Bio-Rad, Hercules, CA, USA), using the manufacturer’s protocol. Quantitative real-time PCR was carried out using Fast SYBR Green Master Mix (Applied Biosystems, Waltham, MA, USA) according to the manufacturer’s instructions. Measurements were performed in triplicate using GAPDH as the reference gene. Real-time PCR was performed using the Biosystems Step One Plus detection system. The following sequences of primers were used: […]

Hela = test: Antiproliferation assay (XTT), Hela; assay type: cell-based; conditions: Homo sapiens, HeLa, 168 h, 7 days incubation, read-out: Antitumor activity EC50, Hela
Experimental: as §4, §5

AF9-AF4 = biological target: T3, AF9-AF4; test: AlphaLisa assay, AF9-AF4 interaction; assay type: binding; conditions: AF9 AHD, AF4 peptide
Experimental: as §1, §2, §3

[4] = biological target: T4, MBP-tagged AF9 AHD domain (475–568); test: AlphaScreen or HTRF; AlphaLisa (Perkin-Elmer anti-MBP kit): MBP-protein (5 nM) on anti-MBP acceptor beads, biotinylated peptide (40 nM) on streptavidin donor beads, increasing concentrations of a small-molecule compound, 25 µL PBS with 0.5% BSA, pH 7.5, 384-well plates; conditions: both partners purified
[5] = biological target: T5, MBP-tagged ENL AHD domain (489–559); test: as above; conditions: both partners purified

| IC50 (ENL-AF4) [µM] | IC50 (AF9-DOT1L interaction [1]) [µM] | EC50 (HL60) [µM] | EC50 (MV4;11) [µM] | EC50 [2] [µM] | EC50 (Molm13) [µM] | remaining activity at 10 µM (AF9-DOT1L interaction [3]; Western blot, compound 10 μM, read-out: AF9 AHD % Control) [%] | remaining activity at 50 µM (AF9-DOT1L interaction [3]; Western blot, compound 50 μM, read-out: AF9 AHD % Control) [%] | EC50 (Hela) [µM] | IC50 (AF9-AF4) [nM] | binding result [4] | binding result [5] | Molecule | EC50 (NB4) [µM] | Effect on AF9 AHD bound to DOT1L peptide-coated beads (in words) (AF9-DOT1L interaction [3]; up to 50 µM) | Expression of MLL target genes HoxA9, Meis1 and Myc (in words) (HoxA9, Meis1 and Myc) |
| --- | --- | --- | --- | --- | --- | --- | --- | --- | --- | --- | --- | --- | --- | --- | --- |
| 3.4 ± 0.4 | 2.5 ± 0.2 | 9 ± 0.9 | 8.2 ± 1.2 | 5.1 to 9.4 | 5.1 ± 0.2 | 27 | 29 | 25 ± 2.5 | 2500 ± 300 | – | – | Cl.O=C(NCC1CCNCC1)c1cc2cc(-c3ccc(N4CCCCC4)cc3)ccc2s1 [Compound 50, 5-(4-(Piperidin-1-yl)phenyl)-N-(piperidin-4-ylmethyl)-benzo[b]thiophene-2-carboxamide hydrochloride] | 9.4 ± 1.2 | significantly reduced the amounts of AF9 AHD; also recorded: dose-dependently reduce AF9 AHD | inhibited expression; also recorded: able to reduce the expression |
| – | – | – | – | – | – | – | – | – | – | binds | – | {Biotin-Ahx}-NKLPVSIPLASVVLPSRAERARST (stretch of histone H3K79 methyltransferase DOT1L with an LxVxIxLxxV/L motif; also called biotinylated DOT1L peptide; source: synthetic peptide, bought: Genscript) [DOT1L peptide (Biotin-AHX-NKLPVSIPLASVVLPSRAERARST)] | – | – | – |
| – | – | – | – | – | – | – | – | – | – | binds | binds | {Biotin-Ahx}-QSLMVKITLDLLSRIPQPPGK (stretch of transcription cofactor AF4 (AFF1) with an LxVxIxLxxV/L motif; also called biotinylated AF4 peptide; source: synthetic peptide, bought: Genscript) [AF4 peptide (Biotin-AHX-QSLMVKITLDLLSRIPQPPGK)] | – | – | – |
